Results published in ChEMBL document CHEMBL6182905, “Fluorinated sulfonamide-flavonoid derivatives as novel Keap1-Nrf2 inhibitors: Potent induction of cytoprotective gene HO-1 in vivo” (Eur J Med Chem, 2025).
Activity calls are given as the source filed them. The calls are words filed in the database; no cut-off is given here.

Key:
Mus musculus [1] = assay: Anti-inflammatory activity in APAP-induced C57BL/6 mouse model of acute liver injury assessed as reduction in IL-6 level in serum at 12.5 to 25 mg/kg, ip measured after 12 hrs by ELISA; type: functional, organism-based; conditions: dose 12.5-25 mg/kg
[2] = Elimination half life in Sprague-Dawley rat at 10 mg/kg, po; type: ADME, organism-based; conditions: in vivo, read-out: beta t1/2 (converted)
Mus musculus [3] = assay: Hepatoprotective activity in APAP-induced Nrf2 knockout male C57BL/6 mouse model of acute liver injury assessed as reduction in liver damage at 25 mg/kg, ip preadministered with compound followed by APAP induction and measured after 12 hrs by H and E staining based analysis; type: functional, organism-based
[4] = Toxicity in C57BL/6J mouse assessed as histopathological change in renal tissue at 25 mg/kg, ip by H and E staining based analysis; type: organism-based; conditions: in vivo
[5] = Toxicity in C57BL/6J mouse assessed as histopathological change in respiratory tissue at 25 mg/kg, ip by H and E staining based analysis; type: organism-based; conditions: in vivo
[6] = Tmax in Sprague-Dawley rat at 10 mg/kg, po; type: ADME, organism-based; conditions: in vivo
[7] = molecular target: T1, Nuclear factor erythroid 2-related factor 2 (Mus musculus) (UniProt Q60795); assay: Activation of Nrf2 in LPS-stimulated mouse AML12 cells assessed as upregulation of GCLM protein level incubated for 16 hrs by Western blot analysis; type: cell-based; conditions: filed as activator, dose 0.5-10 µM
T1 sequence (whole entry): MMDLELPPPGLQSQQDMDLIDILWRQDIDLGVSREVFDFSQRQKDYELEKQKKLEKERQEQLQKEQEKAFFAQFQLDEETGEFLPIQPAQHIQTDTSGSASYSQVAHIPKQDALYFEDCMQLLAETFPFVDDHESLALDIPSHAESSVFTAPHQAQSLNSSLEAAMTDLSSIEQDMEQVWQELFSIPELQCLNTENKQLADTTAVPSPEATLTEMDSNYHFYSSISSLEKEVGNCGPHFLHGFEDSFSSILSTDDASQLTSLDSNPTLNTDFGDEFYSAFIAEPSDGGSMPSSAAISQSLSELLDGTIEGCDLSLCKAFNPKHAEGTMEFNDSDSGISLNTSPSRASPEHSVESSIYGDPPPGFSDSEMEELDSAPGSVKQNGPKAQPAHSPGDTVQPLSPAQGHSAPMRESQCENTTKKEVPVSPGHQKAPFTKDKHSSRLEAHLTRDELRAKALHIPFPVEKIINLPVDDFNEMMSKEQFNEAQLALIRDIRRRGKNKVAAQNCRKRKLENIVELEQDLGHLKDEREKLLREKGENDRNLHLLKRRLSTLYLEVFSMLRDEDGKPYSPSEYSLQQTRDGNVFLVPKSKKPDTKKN

Mus musculus [8] = assay: Anti-inflammatory activity against APAP-induced male C57BL/6 mouse model of acute liver injury assessed as restoration of GCLM protein level in liver at 12.5 to 25 mg/kg, ip measured after 12 hrs by Western blot analysis; type: functional, organism-based; conditions: dose 12.5-25 mg/kg
[9] = Drug concentration in plasma of APAP-induced acute liver injury male C57BL/6 mouse model at 12.5 mg/kg, ip pre-administered with compound for 1 hr followed by APAP induction and measured after 12 hrs by Mass spectrometric analysis; type: ADME, organism-based
Mus musculus [10] = assay: Hepatoprotective activity in APAP-induced Nrf2 knockout male C57BL/6 mouse model of acute liver injury assessed as effect on AST level in liver at 25 mg/kg, ip preadministered with compound followed by APAP induction and measured after 12 hrs; type: functional, organism-based
[11] = Drug concentration in plasma of APAP-induced acute liver injury male C57BL/6 mouse model at 25 mg/kg, ip pre-administered with compound for 1 hr followed by APAP induction and measured after 12 hrs by Mass spectrometric analysis; type: ADME, organism-based
[12] = molecular target: T1, Nuclear factor erythroid 2-related factor 2 (Mus musculus); assay: Activation of Nrf2 in LPS-stimulated mouse AML12 cells assessed as upregulation of HO-1 mRNA expression incubated for 16 hrs by RT-qPCR analysis; type: cell-based; conditions: filed as activator, dose 0.5-10 µM
[13] = Absolute oral bioavailability in Sprague-Dawley rat at 10 mg/kg; type: ADME, organism-based; conditions: in vivo
[14] = Toxicity in C57BL/6J mouse assessed as histopathological change in splenic tissue at 25 mg/kg, ip by H and E staining based analysis; type: organism-based; conditions: in vivo
Mus musculus [15] = assay: Anti-inflammatory activity in APAP-induced C57BL/6 mouse model of acute liver injury assessed as reduction in neutrophil invasion in liver at 12.5 to 25 mg/kg, ip measured after 12 hrs by immunohistochemical staining based analysis; type: functional, organism-based; conditions: dose 12.5-25 mg/kg
Mus musculus [16] = assay: Hepatoprotective activity in APAP-induced male C57BL/6 mouse model of acute liver injury assessed as attenuation of catalase (CAT) level in liver at 12.5 to 25 mg/kg, ip measured after 12 hrs; type: functional, organism-based; conditions: dose 12.5-25 mg/kg
[17] = molecular target: T1, Nuclear factor erythroid 2-related factor 2 (Mus musculus); assay: Activation of Nrf2 in LPS-stimulated mouse AML12 cells assessed as upregulation of GCLM mRNA expression incubated for 16 hrs by RT-qPCR analysis; type: cell-based; conditions: filed as activator, dose 0.5-10 µM
[18] = Drug concentration in liver of APAP-induced acute liver injury male C57BL/6 mouse model at 25 mg/kg, ip pre-administered with compound for 1 hr followed by APAP induction and measured after 12 hrs by Mass spectrometric analysis; type: ADME, organism-based; conditions: read-out: Ct
[19] = molecular target: T1, Nuclear factor erythroid 2-related factor 2 (Mus musculus); assay: Activation of Nrf2 in LPS-stimulated mouse AML12 cells assessed as upregulation of Akr1c1 mRNA expression incubated for 16 hrs by RT-qPCR analysis; type: cell-based; conditions: filed as activator, dose 0.5-10 µM
[20] = molecular target: T1, Nuclear factor erythroid 2-related factor 2 (Mus musculus); assay: Activation of Nrf2 in LPS-stimulated mouse AML12 cells assessed as upregulation of Akr1c1 mRNA expression by measuring fold change at 10 uM incubated for 16 hrs relative to sulforaphane; type: cell-based; conditions: filed as activator
Mus musculus [21] = assay: Anti-inflammatory activity against APAP-induced male C57BL/6 mouse model of acute liver injury assessed as upregulation of GCLM mRNA level in liver administered intraperitoneally and measured after 12 hrs by RT-qPCR analysis; type: functional, organism-based; conditions: dose 12.5-25 mg/kg, route ip
[22] = Toxicity in C57BL/6J mouse assessed as histopathological change in cardiovascular tissue at 25 mg/kg, ip by H and E staining based analysis; type: organism-based; conditions: in vivo
Mus musculus [23] = assay: Hepatoprotective activity in APAP-induced male C57BL/6 mouse model of acute liver injury assessed as attenuation of nitric oxide (NO) level in liver at 12.5 to 25 mg/kg, ip measured after 12 hrs; type: functional, organism-based; conditions: dose 12.5-25 mg/kg

half-life [2]: 3.47 h
Tmax [6]: 1.5 h
Activity [7]: Dose-dependent-effect
Activity [12]: Dose-dependent-effect
bioavailability [13]: 19.9%
Activity [17]: Dose-dependent-effect
Activity [19]: Dose-dependent-effect
fold change (FC) [20]: 1.8
SMILES: COc1ccc(-c2cc(=O)c3ccc(NS(=O)(=O)c4ccc(F)cc4)cc3o2)cc1
Activity (Mus musculus [1]): Active
Activity (Mus musculus [3]): inactive
Activity [4]: Non-toxic
Activity [5]: Non-toxic
Activity (Mus musculus [8]): Active
concentration at 13 h [9]: 50 ng/mL
Activity (Mus musculus [10]): No effect
concentration at 13 h [11]: 155 ng/mL
Activity [14]: Non-toxic
Activity (Mus musculus [15]): Active
Activity (Mus musculus [16]): Active
concentration at 13 h [18]: 485 ng/g
Activity (Mus musculus [21]): Dose-dependent-effect
Activity [22]: Non-toxic
Activity (Mus musculus [23]): Active
